The target of data set [1] is TGF-beta receptor type-2 (Homo sapiens) (UniProt P37173). The experiment in a line: Inhibition of human TGFbetaR2 at 100 nM by kinase profiling assay relative to control.
Data set [2] in a line: Bioavailability in Sprague-Dawley rat at 2 mg/kg,iv administration measured for 0.25 to 24 hrs by LC-MS/MS analysis. The class given is ADME, organism-based. Particulars: in vivo, time 0.25-24 hrs.
Data set [3] concerns the target Cyclin-dependent kinase 12 (Homo sapiens, UniProt Q9NYV4). The experiment in a line: Inhibition of CDK12 (unknown origin).
A short description of data set [4]: Toxicity in BALB/c mouse xenografted with human HCT-116 cells assessed as lung morphological change at 25 mg/kg,po administrated once daily for 3 weeks by hematoxylin and eosin staining based microscopic analysis. The class given is organism-based. Particulars: in vivo, 504 h.
The target of data set [5] is Serine/threonine-protein kinase SIK2 (Homo sapiens) (UniProt Q9H0K1). The experiment in a line: Inhibition of human QIK at 100 nM by kinase profiling assay relative to control.
Data set [6] in a line: Clearance in Sprague-Dawley rat at 2 mg/kg,iv administration measured for 0.25 to 24 hrs by LC-MS/MS analysis. The class given is ADME, organism-based. The note with it: in vivo, time 0.25-24 hrs.
Data set [7] deals with Activin receptor type-1B (Homo sapiens) (UniProt P36896). The experiment in a line: Inhibition of human ALK4 at 100 nM by kinase profiling assay relative to control.
Data set [8] deals with Cyclin-dependent kinase 9 (Homo sapiens, UniProt P50750). Kind of data set: Inhibition of CDK9 (unknown origin).
Data set [9] concerns HCT-116. Kind of data set: Induction of apoptosis in human HCT-116 cells assessed as downregulation of RNA polymerase II phosphorylation at Ser2 residue at 25 to 400 nM incubated for 48 hrs by Western blotting analysis. Type of data set: functional, cell-based. Particulars: dose 25-400 nM. (In western blotting, separated proteins are transferred to a membrane and probed.)
The nature of data set [10]: AUC (0 to t) in Sprague-Dawley rat at 10 mg/kg,po administration measured for 0.25 to 24 hrs by LC-MS/MS analysis. Particulars: in vivo, time 0.25-24 hrs. Type of data set: ADME, organism-based.
Data set [11] has as its target Homeodomain-interacting protein kinase 1 (Homo sapiens) (UniProt Q86Z02). Kind of data set: Inhibition of human HIPK1 at 100 nM by kinase profiling assay relative to control.
Data set [12] is described as follows: Half life in Sprague-Dawley rat at 2 mg/kg,iv administration measured for 0.25 to 24 hrs by LC-MS/MS analysis. Type of data set: ADME, organism-based. The note with it: in vivo, time 0.25-24 hrs.
Data set [13] can be described thus: Selectivity index, ratio of GI50 for growth inhibition of human CCC-HIE-2 cells to GI50 for growth inhibition of human HCT-116 cells.
Data set [14] in a line: Toxicity in BALB/c mouse xenografted with human HCT-116 cells assessed as spleen morphological change at 50 mg/kg,po administrated once daily for 3 weeks by hematoxylin and eosin staining based microscopic analysis. The note with it: in vivo, 504 h. The class given is organism-based. In general terms: A xenograft is tissue or cells of one species grown in another, often human tumour cells in immunodeficient mice.

Another data set deals with CYP3A4 (Homo sapiens, UniProt P08684). The experiment in a line: Inhibition of CYP3A4 in human liver microsomes using ketoconazole as […] at 10 uM preincubated for 10 mins followed by NADPH addition measured after 15 mins by LC-MS/MS analysis relative to control. Particulars: probe ketoconazole, time 25 min. Type of data set: ADME, Microsome. (In general: Microsomes from liver hold many membrane-bound enzymes, among them those of drug oxidation.)

Data set [15] is described as follows: Toxicity in BALB/c mouse xenografted with human HCT-116 cells assessed as spleen morphological change at 25 mg/kg,po administrated once daily for 3 weeks by hematoxylin and eosin staining based microscopic analysis. The class given is organism-based. Particulars: in vivo, 504 h.
A short description of data set [16]: Cmax in Sprague-Dawley rat at 10 mg/kg,po administration measured for 0.25 to 24 hrs by LC-MS/MS analysis. The class given is ADME, organism-based. Particulars: in vivo, time 0.25-24 hrs.
A short description of data set [17]: Toxicity in BALB/c mouse xenografted with human HCT-116 cells assessed as kidney morphological change at 25 mg/kg,po administrated once daily for 3 weeks by hematoxylin and eosin staining based microscopic analysis. Type of data set: organism-based. The note with it: in vivo, 504 h.
A short description of data set [18]: Half life in human plasma measured upto 120 mins by LC-MS/MS analysis. Type of data set: ADME, cell-free.
In data set [19] the test system is HCT-116. The experiment in a line: Antitumor activity against human HCT-116 cells xenografted in BALB/c mouse assessed as downregulation of PARP expression at 25 mg/kg,po administrated once daily for 3 weeks by Western blotting analysis. Type of data set: functional, organism-based.
Data set [20] can be described thus: Toxicity in BALB/c mouse xenografted with human HCT-116 cells assessed as kidney morphological change at 50 mg/kg,po administrated once daily for 3 weeks by hematoxylin and eosin staining based microscopic analysis. Type of data set: organism-based. Particulars: in vivo, 504 h.

Each structure is given as a SMILES string. Active and inactive are the calls of the source. No cut-off for these calls is given here.

Sequence of TGF-beta receptor type-2 (Homo sapiens) (P37173 whole entry): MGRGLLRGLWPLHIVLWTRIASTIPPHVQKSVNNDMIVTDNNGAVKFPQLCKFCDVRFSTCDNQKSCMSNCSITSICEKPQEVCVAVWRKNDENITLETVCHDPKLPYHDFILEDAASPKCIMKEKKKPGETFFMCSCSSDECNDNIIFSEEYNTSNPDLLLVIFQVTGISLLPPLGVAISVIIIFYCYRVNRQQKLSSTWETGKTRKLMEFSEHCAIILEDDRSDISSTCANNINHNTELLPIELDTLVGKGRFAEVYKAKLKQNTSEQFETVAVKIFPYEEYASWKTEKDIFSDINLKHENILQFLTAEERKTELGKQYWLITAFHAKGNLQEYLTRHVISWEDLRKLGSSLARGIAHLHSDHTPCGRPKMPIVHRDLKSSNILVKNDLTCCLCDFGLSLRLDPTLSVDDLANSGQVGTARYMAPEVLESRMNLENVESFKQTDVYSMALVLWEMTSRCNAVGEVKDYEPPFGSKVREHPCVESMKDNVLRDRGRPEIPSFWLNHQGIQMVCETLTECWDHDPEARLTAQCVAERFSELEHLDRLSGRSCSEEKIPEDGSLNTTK
Sequence of Activin receptor type-1B (Homo sapiens) (P36896 whole entry): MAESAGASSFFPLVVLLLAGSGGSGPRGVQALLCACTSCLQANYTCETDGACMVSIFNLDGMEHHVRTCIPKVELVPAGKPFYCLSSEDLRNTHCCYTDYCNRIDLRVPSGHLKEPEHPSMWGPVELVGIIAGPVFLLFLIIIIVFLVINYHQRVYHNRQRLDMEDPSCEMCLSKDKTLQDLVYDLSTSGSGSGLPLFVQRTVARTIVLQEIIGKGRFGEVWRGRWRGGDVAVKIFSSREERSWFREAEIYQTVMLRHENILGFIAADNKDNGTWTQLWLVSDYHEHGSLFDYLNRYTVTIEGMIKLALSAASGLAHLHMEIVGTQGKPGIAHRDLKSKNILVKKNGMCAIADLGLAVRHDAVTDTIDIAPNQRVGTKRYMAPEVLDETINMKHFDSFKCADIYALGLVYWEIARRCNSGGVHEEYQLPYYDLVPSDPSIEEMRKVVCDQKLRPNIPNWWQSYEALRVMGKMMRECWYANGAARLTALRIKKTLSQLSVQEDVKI
Sequence of Serine/threonine-protein kinase SIK2 (Homo sapiens) (Q9H0K1 whole entry, looked up): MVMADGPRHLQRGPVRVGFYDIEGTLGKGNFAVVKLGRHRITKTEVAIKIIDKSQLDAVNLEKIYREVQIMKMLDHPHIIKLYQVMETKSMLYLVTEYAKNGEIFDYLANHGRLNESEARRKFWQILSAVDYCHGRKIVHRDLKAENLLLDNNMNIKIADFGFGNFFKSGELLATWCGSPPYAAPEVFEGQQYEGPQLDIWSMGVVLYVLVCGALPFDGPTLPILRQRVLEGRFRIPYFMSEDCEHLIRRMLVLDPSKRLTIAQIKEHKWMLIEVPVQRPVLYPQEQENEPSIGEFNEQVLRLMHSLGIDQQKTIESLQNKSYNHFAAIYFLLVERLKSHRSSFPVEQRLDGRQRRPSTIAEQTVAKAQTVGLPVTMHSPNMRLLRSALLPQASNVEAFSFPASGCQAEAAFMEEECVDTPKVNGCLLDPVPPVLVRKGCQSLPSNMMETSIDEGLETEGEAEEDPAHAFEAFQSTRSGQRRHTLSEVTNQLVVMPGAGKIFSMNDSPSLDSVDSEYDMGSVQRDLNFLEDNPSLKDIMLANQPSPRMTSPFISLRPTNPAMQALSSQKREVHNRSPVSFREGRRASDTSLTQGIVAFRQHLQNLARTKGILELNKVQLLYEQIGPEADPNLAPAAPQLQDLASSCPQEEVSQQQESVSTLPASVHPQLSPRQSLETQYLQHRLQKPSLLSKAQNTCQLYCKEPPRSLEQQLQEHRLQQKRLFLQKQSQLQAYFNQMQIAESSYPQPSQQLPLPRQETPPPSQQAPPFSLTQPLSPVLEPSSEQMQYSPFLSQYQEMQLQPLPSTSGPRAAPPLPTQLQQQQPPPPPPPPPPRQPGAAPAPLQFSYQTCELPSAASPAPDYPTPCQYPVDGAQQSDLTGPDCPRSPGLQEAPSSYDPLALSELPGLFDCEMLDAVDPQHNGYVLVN
Sequence of Homeodomain-interacting protein kinase 1 (Homo sapiens) (Q86Z02 whole entry, looked up): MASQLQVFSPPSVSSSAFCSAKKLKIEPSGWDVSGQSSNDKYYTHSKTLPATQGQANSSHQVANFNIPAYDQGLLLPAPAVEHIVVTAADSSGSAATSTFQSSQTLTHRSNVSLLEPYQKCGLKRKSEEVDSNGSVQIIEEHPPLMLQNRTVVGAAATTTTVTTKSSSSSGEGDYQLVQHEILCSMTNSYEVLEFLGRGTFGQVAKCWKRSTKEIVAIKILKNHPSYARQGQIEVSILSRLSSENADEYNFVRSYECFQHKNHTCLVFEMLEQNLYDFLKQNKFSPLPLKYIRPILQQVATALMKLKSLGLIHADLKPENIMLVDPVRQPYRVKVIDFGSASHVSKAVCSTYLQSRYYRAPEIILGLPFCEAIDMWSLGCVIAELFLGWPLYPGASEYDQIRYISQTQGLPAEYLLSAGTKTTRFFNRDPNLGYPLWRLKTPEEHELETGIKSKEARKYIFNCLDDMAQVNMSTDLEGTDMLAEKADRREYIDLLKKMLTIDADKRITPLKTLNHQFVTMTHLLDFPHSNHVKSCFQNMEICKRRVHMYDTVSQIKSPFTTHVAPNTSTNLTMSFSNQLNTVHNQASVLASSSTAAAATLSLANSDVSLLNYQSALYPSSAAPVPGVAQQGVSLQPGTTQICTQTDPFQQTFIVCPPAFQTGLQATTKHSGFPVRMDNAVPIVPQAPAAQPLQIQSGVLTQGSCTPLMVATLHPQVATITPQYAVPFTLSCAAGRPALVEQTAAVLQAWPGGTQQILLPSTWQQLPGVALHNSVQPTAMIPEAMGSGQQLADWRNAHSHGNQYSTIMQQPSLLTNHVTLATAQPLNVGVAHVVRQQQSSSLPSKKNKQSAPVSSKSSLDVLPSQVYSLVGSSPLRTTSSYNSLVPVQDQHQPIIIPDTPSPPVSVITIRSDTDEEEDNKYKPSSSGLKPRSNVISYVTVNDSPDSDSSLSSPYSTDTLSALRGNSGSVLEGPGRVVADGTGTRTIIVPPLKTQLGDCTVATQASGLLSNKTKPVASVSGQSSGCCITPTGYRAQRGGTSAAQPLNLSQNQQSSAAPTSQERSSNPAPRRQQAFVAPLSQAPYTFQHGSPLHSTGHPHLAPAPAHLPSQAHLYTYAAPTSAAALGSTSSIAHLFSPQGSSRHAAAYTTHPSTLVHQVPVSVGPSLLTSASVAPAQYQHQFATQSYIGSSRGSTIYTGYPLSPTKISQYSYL
Sequence of Cyclin-dependent kinase 9 (P50750 whole entry): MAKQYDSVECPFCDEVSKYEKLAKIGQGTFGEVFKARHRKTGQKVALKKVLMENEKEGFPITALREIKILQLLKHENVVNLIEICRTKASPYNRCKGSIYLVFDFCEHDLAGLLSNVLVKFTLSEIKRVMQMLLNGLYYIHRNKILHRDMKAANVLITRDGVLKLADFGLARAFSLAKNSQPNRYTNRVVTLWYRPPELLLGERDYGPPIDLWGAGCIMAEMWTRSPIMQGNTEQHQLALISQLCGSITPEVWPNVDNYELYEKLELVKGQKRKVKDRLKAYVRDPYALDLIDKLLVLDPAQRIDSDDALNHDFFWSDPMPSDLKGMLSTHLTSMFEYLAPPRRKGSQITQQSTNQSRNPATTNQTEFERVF
Sequence of Cyclin-dependent kinase 12 (Q9NYV4 whole entry): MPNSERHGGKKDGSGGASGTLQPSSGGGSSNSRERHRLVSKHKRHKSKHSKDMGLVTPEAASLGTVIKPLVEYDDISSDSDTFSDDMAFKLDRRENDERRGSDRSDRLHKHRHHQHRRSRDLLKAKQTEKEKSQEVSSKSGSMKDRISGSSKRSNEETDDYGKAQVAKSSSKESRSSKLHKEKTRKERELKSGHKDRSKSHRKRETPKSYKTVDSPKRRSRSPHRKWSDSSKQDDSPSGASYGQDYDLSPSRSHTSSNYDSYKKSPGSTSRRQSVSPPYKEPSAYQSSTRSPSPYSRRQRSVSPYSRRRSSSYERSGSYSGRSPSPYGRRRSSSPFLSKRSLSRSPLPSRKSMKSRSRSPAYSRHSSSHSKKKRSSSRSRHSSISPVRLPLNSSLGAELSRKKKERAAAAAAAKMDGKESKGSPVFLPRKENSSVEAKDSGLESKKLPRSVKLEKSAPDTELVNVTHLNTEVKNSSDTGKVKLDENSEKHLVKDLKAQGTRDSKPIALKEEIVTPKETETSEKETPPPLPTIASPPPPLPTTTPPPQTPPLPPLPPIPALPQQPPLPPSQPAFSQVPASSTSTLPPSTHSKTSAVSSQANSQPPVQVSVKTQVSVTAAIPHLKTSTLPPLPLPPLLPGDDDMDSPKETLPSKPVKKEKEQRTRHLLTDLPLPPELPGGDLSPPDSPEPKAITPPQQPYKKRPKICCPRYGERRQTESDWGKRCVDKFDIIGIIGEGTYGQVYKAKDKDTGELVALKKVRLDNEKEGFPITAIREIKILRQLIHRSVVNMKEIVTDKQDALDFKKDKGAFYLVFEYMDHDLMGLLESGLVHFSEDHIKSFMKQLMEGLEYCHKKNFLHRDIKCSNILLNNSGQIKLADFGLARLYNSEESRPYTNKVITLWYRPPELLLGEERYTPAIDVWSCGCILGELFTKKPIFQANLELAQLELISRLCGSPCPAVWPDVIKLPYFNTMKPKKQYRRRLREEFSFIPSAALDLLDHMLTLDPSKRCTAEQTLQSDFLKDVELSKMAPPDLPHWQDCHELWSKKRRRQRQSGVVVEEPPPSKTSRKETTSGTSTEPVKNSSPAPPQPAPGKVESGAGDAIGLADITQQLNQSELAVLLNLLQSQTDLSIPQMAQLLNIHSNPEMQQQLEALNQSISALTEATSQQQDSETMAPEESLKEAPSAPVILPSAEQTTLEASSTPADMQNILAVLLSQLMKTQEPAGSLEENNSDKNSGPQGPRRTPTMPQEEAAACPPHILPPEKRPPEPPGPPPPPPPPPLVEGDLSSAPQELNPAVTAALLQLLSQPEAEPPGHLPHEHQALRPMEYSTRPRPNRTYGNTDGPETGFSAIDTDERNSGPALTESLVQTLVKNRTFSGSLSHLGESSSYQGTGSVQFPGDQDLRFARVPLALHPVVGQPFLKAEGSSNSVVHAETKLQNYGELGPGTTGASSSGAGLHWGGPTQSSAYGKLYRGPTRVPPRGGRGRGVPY

In the case of `CC(C)n1nnc2ccc(-c3ccnc(Nc4cc(C(=O)N5CCCN(C)CC5)ccn4)c3)cc21`, the inhibition in data set [1], in [5], in data set [7] and in data set [11] was under 50% each time. This compound also yielded a bioavailability in [2] of 12.3%. The IC50 was over 500 nM in data set [3] and 2.9 nM in [8]. For the same compound, the Activity result in data set [4], in data set [14], in data set [15], in [17] and in data set [20] was “Non-Toxic” each time. The clearance in [6] is 89.8 mL/min/kg. The outcome in the data set with HCT-116 [9] and with HCT-116 [19] was Active. In addition, the AUC(0-t) in data set [10] is 168 ng·h/mL. In addition, the results for the half-life in data set [12] and in data set [18] were 1.7 h and over 4.82 h, respectively. For the same compound, in data set [13], the RatioGI50 came out at 173.46. Also, the inhibition at 0.25 h, 10 µM at CYP3A4 worked out at 0%. Moreover, in data set [16], the Cmax is 39 ng/mL.

Broadly, the inhibition is the share of the control response that was lost under treatment. Low readings indicate little suppression, high ones strong suppression. As a reminder, the bioavailability is the share of a dose that reaches the circulation, judged against a reference dose that is usually intravenous. Low readings indicate poor availability, high ones good availability. As a reminder, the IC50 is the point on the concentration scale where inhibition reaches its midpoint. Higher therefore signals a need for much substance. One may read the clearance as the volume of plasma or blood freed of the substance per unit of time. A word on the AUC(0-t): it is exposure summed from dosing to a finite time, without extrapolation to infinity. Read a high AUC(0-t) as high exposure. A word on the half-life: it is the time in which the quantity being followed falls by half. Read a low half-life as fast loss. The Cmax is the maximum level reached in the sampled fluid or tissue.

The values above are taken from ChEMBL document CHEMBL5518230, “Identification of a Novel Selective CDK9 Inhibitor for the Treatment of CRC: Design, Synthesis, and Biological Activity Evaluation” (J Med Chem, 2024).
